The text below walks through data of ChEMBL document CHEMBL1131279, “Endothiopeptide inhibitors of HIV-1 protease” (Bioorg Med Chem Lett, 1998).

The target of experiment [1] is T1, Human immunodeficiency virus type 1 protease (Human immunodeficiency virus 1, UniProt Q72874). The experiment can be described thus: Inhibitory activity against HIV-1 Protease was determined.
For experiment [2], the target named is T1, Human immunodeficiency virus type 1 protease. Briefly: Binding affinity was evaluated for competitive inhibition of HIV-1 Protease.

Starred links: 1 amine or outer side, 2 acyl side, 3 side chain; linkers in the order of their positions; H or OH if unused. Non-standard residues stand in square brackets, D forms with d. Residues, ends and D or L forms follow the SMILES beside them. *: point of attachment. X2 = O=C([C@H](Cc1ccccc1)NC(=S)[C@H](Cc1ccccc1)N[*:1])[*:2]; X3 = O=C([C@H](Cc1ccccc1)CC(O)[C@H](Cc1ccccc1)N[*:1])[*:2]; X4 = CC(C)[C@H](/N=C(\S)[C@H](Cc1ccccc1)N[*:1])C(=O)[*:2]; AlaΨ(CSNH)Ala = C[C@H](NC(=S)[C@H](C)N[*:1])C(=O)[*:2]; X5 = C[C@H](N[*:1])C(=S)N[C@@H](Cc1ccccc1)C(=O)[*:2]; X1 = COC(=O)[C@@H](NC(=S)[C@@H](N*)C(C)C)C(C)C; Cbz = O=C(OCc1ccccc1)*; Boc = CC(C)(C)OC(=O)* A value given as a limit tells only on which side of the number the result lay.

On to `COC(=O)[C@@H](NC(=S)[C@@H](NC(=O)[C@H](Cc1ccccc1)NC(=O)[C@H](Cc1ccccc1)NC(=O)[C@H](C)NC(=O)[C@H](C)NC(=O)OC(C)(C)C)C(C)C)C(C)C` (Boc-AAFF-X1), for which it took 4.5 µM to reach half-maximal inhibition in experiment [1] (IC50). Also, in experiment [2], the affinity, expressed as Ki, was 3.4 µM.
Regarding `COC(=O)[C@@H](NC(=O)[C@@H](/N=C(\S)[C@H](Cc1ccccc1)NC(=O)[C@H](Cc1ccccc1)NC(=O)[C@H](C)NC(=O)[C@H](C)NC(=O)OC(C)(C)C)C(C)C)C(C)C` (Boc-AAF[X4]V-OMe), in experiment [1], the IC50 (usually the concentration that gives 50% inhibition) is above 200 µM.
`COC(=O)[C@@H](NC(=O)[C@@H](NC(=O)[C@H](Cc1ccccc1)NC(=S)[C@H](Cc1ccccc1)NC(=O)[C@H](C)NC(=O)[C@H](C)NC(=O)OC(C)(C)C)C(C)C)C(C)C` (Boc-AA[X2]VV-OMe) displayed a 50% inhibitory concentration (IC50) in experiment [1] of 18 µM.
In turn, `COC(=O)[C@@H](NC(=O)[C@@H](NC(=O)[C@H](Cc1ccccc1)NC(=O)[C@H](Cc1ccccc1)NC(=S)[C@H](C)NC(=O)[C@H](C)NC(=O)OC(C)(C)C)C(C)C)C(C)C` (Boc-A[X5]FVV-OMe) displayed a concentration for half-maximal inhibition (IC50) in experiment [1] of 51 µM.
In the case of `COC(=O)[C@@H](NC(=O)[C@@H](NC(=O)[C@H](Cc1ccccc1)NC(=O)[C@H](Cc1ccccc1)NC(=O)[C@H](C)/N=C(\S)[C@H](C)NC(=O)OC(C)(C)C)C(C)C)C(C)C` (Boc-[AlaΨ(CSNH)Ala]FFVV-OMe), it took 160 µM to reach half-maximal inhibition in experiment [1] (IC50).
With `COC(=O)[C@@H](NC(=O)[C@@H](NC(=O)[C@H](Cc1ccccc1)CC(O)[C@H](Cc1ccccc1)NC(=O)[C@H](C)NC(=O)[C@H](C)NC(=O)OCc1ccccc1)C(C)C)C(C)C` (some centres not stated) (Cbz-AA[X3]VV-OMe), affinity in experiment [1] was put at a Ki of 0.0004 µM. This lies in the sub-nanomolar range.
